≈ marks a conversion by molar mass, not a printed value. Like-named read-outs stand apart in the source and are kept apart here.
Tests used:
Type in all cases: cell-based
Streptococcus pneumoniae [1] = assay: MIC by agar dilution (NCCLS), 411 isolates Buenos Aires 1998-99; details: Streptococcus pneumoniae, S. pneumoniae, read-out: MIC90
Streptococcus pneumoniae [2] = assay: MIC by NCCLS reference broth microdilution, 450 respiratory tract pathogens; details: for MIC50 / MIC90 / MIC: Streptococcus pneumoniae
Streptococcus pyogenes = assay: as above; details: Streptococcus pyogenes
Haemophilus influenzae = assay: as above; details: Haemophilus influenzae; for MIC90: read-out: MIC90
Moraxella catarrhalis = assay: as above
Staphylococcus aureus = assay: as above
Klebsiella pneumoniae = assay: as above; details: Klebsiella pneumoniae
[3] = Streptococcus pneumoniae (n = 100)
[4] = erythromycin resistant M phenotype (n = 16)
[5] = erythromycin resistant MLSB phenotype (n = 16)
[6] = penicillin intermediate (n = 16)
[7] = penicillin susceptible (n = 20)
[8] = Streptococcus pyogenes (n = 100)
[9] = erythromycin resistant C phenotype [MLSB] (n = 20)
[10] = erythromycin resistant I phenotype [MLSB] (n = 20)
[11] = erythromycin resistant M phenotype (n = 20)
[12] = Haemophilus influenzae (n = 100)
[13] = β-lactamase positive and erythromycin resistant (n = 10)
[14] = extended spectrum β-lactamase positive (n = 20)

CO/N=C(\C(=O)N[C@@H]1C(=O)N2C(C(=O)O)=C(COC(N)=O)CS[C@H]12)c1ccco1 [Cefuroxime, cefuroxime]
MIC90 (Streptococcus pneumoniae [1]; Penicillin intermediate (n = 17)): 4 µg/mL (≈ 9.43 µM) | MIC90 (Streptococcus pneumoniae [1]; Penicillin resistant (n = 4)): 4 µg/mL (≈ 9.43 µM) | MIC90 (Streptococcus pneumoniae [1]; Penicillin susceptible (n = 69)): 0.03 µg/mL (≈ 0.0707 µM) | MIC Range (Streptococcus pneumoniae [2]; [3]): ≤0.0075 to 8 µg/mL | MIC50 (Streptococcus pneumoniae [2]; [3]): 0.03 µg/mL (≈ 0.0707 µM) | MIC90 (Streptococcus pneumoniae [2]; [3]): 2 µg/mL (≈ 4.71 µM) | MIC (Streptococcus pneumoniae [2]; [4]): 0.0075 to 0.12 µg/mL (≈ 0.0177 to 0.283 µM) | MIC50 (Streptococcus pneumoniae [2]; [4]): 0.015 µg/mL (≈ 0.0353 µM) | MIC90 (Streptococcus pneumoniae [2]; [4]): 0.12 µg/mL (≈ 0.283 µM) | MIC (Streptococcus pneumoniae [2]; [5]): 0.015 to 0.5 µg/mL (≈ 0.0353 to 1.18 µM) | MIC50 (Streptococcus pneumoniae [2]; [5]): 0.015 µg/mL (≈ 0.0353 µM) | MIC90 (Streptococcus pneumoniae [2]; [5]): 0.03 µg/mL (≈ 0.0707 µM) | MIC (Streptococcus pneumoniae [2]; multi-drug resistant (n = 16)): 0.015 to 0.25 µg/mL (≈ 0.0353 to 0.589 µM) | MIC50 (Streptococcus pneumoniae [2]; multi-drug resistant (n = 16)): 0.03 µg/mL (≈ 0.0707 µM) | MIC90 (Streptococcus pneumoniae [2]; multi-drug resistant (n = 16)): 0.03 µg/mL (≈ 0.0707 µM) | MIC (Streptococcus pneumoniae [2]; [6]): 0.12 to 8 µg/mL (≈ 0.283 to 18.9 µM) | MIC50 (Streptococcus pneumoniae [2]; [6]): 2 µg/mL (≈ 4.71 µM) | MIC90 (Streptococcus pneumoniae [2]; [6]): 2 µg/mL (≈ 4.71 µM) | MIC (Streptococcus pneumoniae [2]; penicillin resistant (n = 18)): 2 to 8 µg/mL (≈ 4.71 to 18.9 µM) | MIC50 (Streptococcus pneumoniae [2]; penicillin resistant (n = 18)): 2 µg/mL (≈ 4.71 µM) | MIC90 (Streptococcus pneumoniae [2]; penicillin resistant (n = 18)): 8 µg/mL (≈ 18.9 µM) | MIC (Streptococcus pneumoniae [2]; [7]): 0.0075 to 0.015 µg/mL (≈ 0.0177 to 0.0353 µM) | MIC50 (Streptococcus pneumoniae [2]; [7]): 0.015 µg/mL (≈ 0.0353 µM) | MIC90 (Streptococcus pneumoniae [2]; [7]): 0.015 µg/mL (≈ 0.0353 µM) | MIC (Streptococcus pyogenes; [8]): 0.00375 to 0.015 µg/mL (≈ 0.00884 to 0.0353 µM) | MIC50 (Streptococcus pyogenes; [8]): 0.0075 µg/mL (≈ 0.0177 µM) | MIC90 (Streptococcus pyogenes; [8]): 0.015 µg/mL (≈ 0.0353 µM) | MIC (Streptococcus pyogenes; [9]): 0.00375 to 0.015 µg/mL (≈ 0.00884 to 0.0353 µM) | MIC50 (Streptococcus pyogenes; [9]): ≤ 0.00375 µg/mL | MIC90 (Streptococcus pyogenes; [9]): 0.015 µg/mL (≈ 0.0353 µM) | MIC (Streptococcus pyogenes; [10]): 0.00375 to 0.01 µg/mL (≈ 0.00884 to 0.0236 µM) | MIC50 (Streptococcus pyogenes; [10]): ≤ 0.00375 µg/mL | MIC90 (Streptococcus pyogenes; [10]): 0.015 µg/mL (≈ 0.0353 µM) | MIC (Streptococcus pyogenes; [11]): 0.00375 to 0.015 µg/mL (≈ 0.00884 to 0.0353 µM) | MIC50 (Streptococcus pyogenes; [11]): ≤ 0.00375 µg/mL | MIC90 (Streptococcus pyogenes; [11]): 0.015 µg/mL (≈ 0.0353 µM) | MIC (Streptococcus pyogenes; fully susceptible (n = 20)): 0.0075 to 0.015 µg/mL (≈ 0.0177 to 0.0353 µM) | MIC50 (Streptococcus pyogenes; fully susceptible (n = 20)): 0.0075 µg/mL (≈ 0.0177 µM) | MIC90 (Streptococcus pyogenes; fully susceptible (n = 20)): 0.015 µg/mL (≈ 0.0353 µM) | MIC (Streptococcus pyogenes; multi-drug resistant (n = 20)): 0.0075 to 0.015 µg/mL (≈ 0.0177 to 0.0353 µM) | MIC90 (Streptococcus pyogenes; multi-drug resistant (n = 20)): 0.015 µg/mL (≈ 0.0353 µM) | MIC (Haemophilus influenzae; [12]): 0.12 to 4 µg/mL (≈ 0.283 to 9.43 µM) | MIC50 (Haemophilus influenzae; [12]): 0.5 µg/mL (≈ 1.18 µM) | MIC90 (Haemophilus influenzae; [12]): 1 µg/mL (≈ 2.36 µM) | MIC (Haemophilus influenzae; β-lactamase negative (n = 80)): 0.25 to 1 µg/mL (≈ 0.589 to 2.36 µM) | MIC50 (Haemophilus influenzae; β-lactamase negative (n = 80)): 0.5 µg/mL (≈ 1.18 µM) | MIC90 (Haemophilus influenzae; β-lactamase negative (n = 80)): 1 µg/mL (≈ 2.36 µM) | MIC (Haemophilus influenzae; β-lactamase positive (n = 20)): 0.12 to 4 µg/mL (≈ 0.283 to 9.43 µM) | MIC50 (Haemophilus influenzae; β-lactamase positive (n = 20)): 0.5 µg/mL (≈ 1.18 µM) | MIC90 (Haemophilus influenzae; β-lactamase positive (n = 20)): 1 µg/mL (≈ 2.36 µM) | MIC (Moraxella catarrhalis; Moraxella catarrhalis (n = 50)): 0.00375 to 1 µg/mL (≈ 0.00884 to 2.36 µM) | MIC50 (Moraxella catarrhalis; Moraxella catarrhalis (n = 50)): 0.25 µg/mL (≈ 0.589 µM) | MIC90 (Moraxella catarrhalis; Moraxella catarrhalis (n = 50)): 1 µg/mL (≈ 2.36 µM) | MIC (Moraxella catarrhalis; β-lactamase negative (n = 13)): 0.00375 to 1 µg/mL (≈ 0.00884 to 2.36 µM) | MIC50 (Moraxella catarrhalis; β-lactamase negative (n = 13)): 0.12 µg/mL (≈ 0.283 µM) | MIC90 (Moraxella catarrhalis; β-lactamase negative (n = 13)): 0.5 µg/mL (≈ 1.18 µM) | MIC (Moraxella catarrhalis; β-lactamase positive (n = 37)): 0.00375 to 1 µg/mL (≈ 0.00884 to 2.36 µM) | MIC50 (Moraxella catarrhalis; β-lactamase positive (n = 37)): 0.25 µg/mL (≈ 0.589 µM) | MIC90 (Moraxella catarrhalis; β-lactamase positive (n = 37)): 1 µg/mL (≈ 2.36 µM) | MIC (Staphylococcus aureus; Staphylococcus aureus (n = 50)): 0.00375 to 0.25 µg/mL (≈ 0.00884 to 0.589 µM) | MIC50 (Staphylococcus aureus; Staphylococcus aureus (n = 50)): 0.25 µg/mL (≈ 0.589 µM) | MIC90 (Staphylococcus aureus; Staphylococcus aureus (n = 50)): 0.25 µg/mL (≈ 0.589 µM) | MIC (Staphylococcus aureus; β-lactamase negative (n = 20)): 0.0075 to 0.25 µg/mL (≈ 0.0177 to 0.589 µM) | MIC50 (Staphylococcus aureus; β-lactamase negative (n = 20)): 0.25 µg/mL (≈ 0.589 µM) | MIC90 (Staphylococcus aureus; β-lactamase negative (n = 20)): 0.25 µg/mL (≈ 0.589 µM) | MIC (Staphylococcus aureus; β-lactamase positive (n = 20)): 0.06 to 0.25 µg/mL (≈ 0.141 to 0.589 µM) | MIC50 (Staphylococcus aureus; β-lactamase positive (n = 20)): 0.25 µg/mL (≈ 0.589 µM) | MIC90 (Staphylococcus aureus; β-lactamase positive (n = 20)): 0.25 µg/mL (≈ 0.589 µM) | MIC (Staphylococcus aureus; [13]): 0.06 to 0.25 µg/mL (≈ 0.141 to 0.589 µM) | MIC50 (Staphylococcus aureus; [13]): 0.12 µg/mL (≈ 0.283 µM) | MIC90 (Staphylococcus aureus; [13]): 0.25 µg/mL (≈ 0.589 µM) | MIC50 (Klebsiella pneumoniae; Klebsiella pneumoniae (n = 50)): 2 µg/mL (≈ 4.71 µM) | MIC90 (Klebsiella pneumoniae; Klebsiella pneumoniae (n = 50)): 128 µg/mL (≈ 302 µM) | MIC50 (Klebsiella pneumoniae; [14]): 128 µg/mL (≈ 302 µM) | MIC90 (Klebsiella pneumoniae; [14]): > 128 µg/mL

From patent EP1561465A2, “Methods of use of fluoroquinolone compounds against bacteria” (LG Life Sciences, Ltd., priority 1999, dated 2001)
